# Assay results published in patent US20150224120A1, “COMPOSITIONS AND METHODS FOR TREATING HYPERPROLINEMIA-ASSOCIATED MENTAL DISORDERS” (priority 2011, published 2015).
# Entries after “also recorded” stand apart in the source; their conditions may differ. Read-outs that look alike come from different tables or passages of the source.
# What was measured:
# plasma proline [1] = details: previously reported (Jacquet et al., 2005); cited from earlier work
# PRODH expression [2] = details: bronchial smooth muscle cells, treated (n=3) vs untreated (n=3), p=0.01; cited from earlier work
# PRODH expression [3] = test: Peripheral PRODH expression in first-episode never-medicated SZ patients pre and post treatment (Affymetrix U133v2.0 arrays); format: in vivo, human
# Excerpt: Change in log PRODH were plotted for each subject prior to-(100%), and post-treatment onset. All of the subjects received risperidone. The mean time between blood draws was 8.3 days. […] There were no significant differences in time between blood draws for those with increased PRODH (n=3), versus those with no increase (n=3, p=0.2). […] In a linear regression model, PRODH percent change was a significant predictor of total Brief Psychiatric Rating Scale (BPRS) score approximately 8 days following treatment initiation (p=0.047), after adjusting for baseline total BPRS score. Furthermore, the linear relationship between PRODH change and adjusted BPRS score was highly significant (r=−0.92, p=0.025).
# Exploratory analysis of PRODH expression levels were also performed in first-episode, never-medicated SZ patients (n=6). Male, first-episode, never-medicated SZ patients were recruited at the Bellevue Hospital CPEP. A 15 ml blood sample was collected at admission to the CPEP, and peripheral PRODH expression was measured using Affymetrix U133v2.0 arrays (PRODH is one of the 54,000 transcripts). A post-treatment measurement of PRODH expression was also obtained (mean time between blood draws=8.3 days).
# [4] = male infants receiving supplements (≦2000 IU/day) during first year of life; cited from earlier work
# plasma proline [5] = test: Fasting plasma proline before and after oral Vitamin D supplementation; format: in vivo; details: oral 2000 IU daily, five fasting measurements before and five over subsequent five days, p=0.059
# Excerpt: Affymetrix microarray data was accessed via the NCBI GEO database, accession numbers GDS1847 (FIG. 4A) and GDS2628 (FIG. 4B). […] Five fasting plasma proline measurements were obtained prior to the initiation of Vitamin D supplementation (2000 IU daily), after which an additional five fasting plasma measurements were obtained over the subsequent five days.
# As illustrated by FIG. 4, the biologically active form of vitamin D (1α,25-dihydroxyvitamin D3 [1α,25(OH)2D3]) is also a potent regulator of PRODH expression. […] Moreover, in vivo (FIG. 4C), proline levels are decreased by treatment with oral vitamin D.
# [6] = women with high vs low dietary consumption; cited from earlier work
# PRODH expression [7] = details: intestinal epithelial cells, treated (n=5) vs untreated control cells (n=5), p=0.044 one-tailed, cited from earlier work
compound,measurement,setting,value
CCCC(CCC)C(=O)O [valproic acid],effect on plasma proline level,plasma proline [1],significant effect
"C=C1/C(=C\C=C2/CCC[C@]3(C)[C@@H]([C@H](C)CCCC(C)(C)O)CC[C@@H]23)C[C@@H](O)C[C@@H]1O [1alpha,25-dihydroxy-vitamin-D3]",PRODH expression (probeset 214203_s_at),PRODH expression [2],upregulation
Cc1nc2n(c(=O)c1CCN1CCC(c3noc4cc(F)ccc34)CC1)CCCC2 [risperidone],PRODH expression post-treatment level (mean),"PRODH expression [3]; all subjects n=6, mean 8.3 days between blood draws, pre level 6.10±0.41, p=0.3",6.24±0.35 expression units
same,decrease of PRODH expression after onset of treatment,"PRODH expression [3]; no-change group, n=3, non-significant, p=0.15",2.3%
same,change in PRODH expression between pre and post assay,"PRODH expression [3]; subset of patients (n=3), p=0.034",significantly upregulated
same,mean percent change (increase) of PRODH expression after onset of treatment,"PRODH expression [3]; subset of subjects with increase, n=3, p=0.04",7.3%
vitamin D,PRODH expression (probeset 214203_s_at),PRODH expression [2],significantly upregulates; also recorded: upregulation
same,risk of schizophrenia,[4],significantly reduced risk
same,plasma proline following Vitamin D treatment,plasma proline [5],trend for plasma proline to decrease
same,plasma proline following Vitamin D treatment,plasma proline [5]; listed as vitamin D,decreased
same,lower risk of psychosis-like symptoms,[6],37%
same,PRODH expression (probeset 40042_r_at),PRODH expression [7],upregulated
same,PRODH expression (probeset 40042_r_at),PRODH expression [7]; listed as vitamin D,significantly upregulates
